Legend:
[1] = Pharmacokinetics and in vivo metabolites of ZL277 in mice plasma after single IP dose; conditions: for metabolite detected in Plasma: mice after IP injection of ZL277
Description: (§1) Four to six-week-old female ovariectomized Nu/Nu mice (Genotype: Homozygous genotype, homozygous for Foxn1), purchased from Charles River Laboratories (Wilmington, MA, USA), were used for the study of ZL277 metabolites in vivo. Six mice in each group were given ethanol-dissolved ZL277 and belinostat, at a single dose of 10 mg/kg by intraperitoneal injection (IP). After IP administration, venous blood samples were collected at 1, 3, 6, and 24 h time points. Urine and fecal samples were collected for the time duration of 0–8 h, 8–24 h, 24–32 h, and 32–48 h after IP administration.
(§2) Plasma, urine, or feces samples were processed following protocols published previously. These samples were injected on the Hypersil GOLD C18 column (1.8 µm, 2.1 × 50 mm) with UHPLC ultimate 3000 from Dionex, coupled with a […] mass spectrometer, to quantitate the concentration of the main metabolites of ZL277. The 10 µL samples were run with the gradient starting at 0.3 mL/min from 2% mobile phase B (acetonitrile with 0.05% formic acid) and 98% mobile phase A (water with 0.05% formic acid) until 1 min, up to 30% B at 3 min, 45% B at 4.8 min, 100% B at 5.5 min, then back to 30% B until equilibration. SRM mode was used to detect ZL277 (pos 535.21→134.97), ZL277-B(OH)2-452 (neg 451.13→256.04), ZL277-424-OH (neg 423.07→317.04), belinostat (neg 317.02→245.05) or (pos 319.08→93.08), belinostat amide (pos 303.08→91.05), belinostat acid (neg 302.05→92.05), methylated belinostat (pos 333.09→239.92). The product scan in MS/MS mode was used to detect belinostat–sulfate (neg 397.02→97.02), and belinostat–glucoronate (pos 495.09→319.27). The […] was set at spray voltage at 3200 V, vaporizer temperature at 365 °C, sheath gas pressure at 33 psi, auxiliary gas pressure at 10 psi, and capillary temperature at 350 °C. Additional experimental details can be found in Figures S1 and S2, and Tables S1–S8.
Sample preparation protocols:
(1) Plasma sample preparation: Plasma samples (100 μL) were extracted with methanol.
Internal standard (10 μL 0.5 ng/μL trans-tamoxifen-13C2, 15N in methanol), methanol
(0.5 mL) were added to each plasma sample. The mixtures were stored at −20 °C
overnight. Samples were sonicated for 10 min and then centrifuged on a Heraeus Fresco

[2] = Drug and metabolite concentrations in MCF-7 xenograft breast tumor tissues of treated mice; type: in vivo; conditions: breast tumor xenograft in mice treated with ZL277
Description: Four to six week old female ovariectomized Nu/Nu mice, implanted subcutaneously with 17β-Estradiol pellets, were injected with MCF-7 cells harvested in the exponential growth phase to grow the breast tumors. On day 15 after tumor formation, the mice were treated with vehicle, belinostat, at 10 mg/kg/day, or ZL277 at 10 mg/kg/day, by subcutaneous injection. On the last day of the study, the tumors were collected and frozen for analysis.
as §2

[3] = Metabolites of ZL277 in urine and fecal samples from treated mice; type: in vivo; conditions: for metabolite detected in Urine: mice after IP injection of ZL277; for relative abundance among metabolites in feces / relative abundance among metabolites in urine: mice treated with ZL277
Description: as §1, §2
Sample preparation protocols: […]
(2) Feces sample preparation: The collected feces samples were weighed on an OHAUS Explorer balance. The internal standard of trans-tamoxifen-13C2,15N (0.5 ng/μL in methanol) was added to the feces samples based on 10 ng/g feces according to the weight of the feces collected. Methanol was added at the ratio of 4 mL/g feces. Then the samples were homogenized with a Power Gen 125 homogenizer (Fisher Scientific) and stored at - 20 °C overnight. After sonicating for 30 min, the samples were centrifuged with a Heraeus Megafuge16R centrifuge at 3000 RPM. The supernatant was dried at room temperature and resuspended with corresponding amount of methanol (200 μL methanol/g feces) for injection on the TSQ Vantage instrument.
(3) Urine sample preparation: Urine samples were thawed at room temperature and vortexed. 200 μL of the sample was transferred to a 1.5 mL Eppendorf microcentrifuge tube followed by adding 200 μL methanol and 10 μL of the 0.5 ng/μL trans-tamoxifen-13C2, 15N in methanol solution. After Vortaxing and centrifuging, the top supernatant was injected on the UPLC-TSQ Vantage mass spectrometer instrument for analysis.

[4] = system: MCF-7 tumor xenograft; parameters: method as in PMID 29456804; conditions: mice; cited from earlier work
[5] = In vitro sulfation of ZL277 in liver cytosol with PAPS; type: in vitro ADME; conditions: rat liver cytosol, 30 min
Description: The incubation of ZL277 with liver cytosols followed a similar procedure to the study of sulfation of ZB716 [23]. After termination of incubation with 300 µL MeOH, the final mixture was centrifuged. The supernatant was analyzed on the UHPLC-Q-Exactive instrument.
(§3) The samples from in vitro incubations were run on a Hypersil GOLD C18 column (1.8 µm, 2.1 × 50 mm) with UHPLC ultimate 3000 from Dionex coupled with one Q-Exactive HR mass spectrometer (Thermo Scientific, Waltham, MA, USA). The gradient started at 20% mobile phase B (Acetonitrile with 0.05% formic acid) and 80% mobile phase A (water with 0.05% formic acid), increased to 100% B in 4.5 min at 0.3 mL/min, stayed for 5 min, then came back to 30% B until equilibration. PRM mode or full scan mode was used to identify the interested metabolites.

[6] = In vitro metabolism of ZL277 in liver S9 fraction with NADPH; type: in vitro ADME; conditions: rat liver S9, NADPH, 1 h
Description: The incubation of ZL277 with liver S9 fractions followed the procedures of incubation with liver microsomes, as described previously. The pre-incubation solution consisted of 30 µL of potassium phosphate buffer (pH 7.4; 10X), 241.5 µL water, 15 µL of NADPH solution A, 3 µL of NADPH solution B, 7.5 µL rat liver S9 fractions. After incubation at 37 °C for 5 min in a 1.5 mL microcentrifuge vial, 3 µL of 10 mM ZL277 was added, mixed, and incubated at 37 °C for another 60 min in the incubator. Then, 300 µL MeOH was added to terminate the reaction. After centrifugation, the supernatant was analyzed on the UHPLC, coupled to a Q-Exactive high-resolution mass spectrometer.
as §3

[7] = system: MDA-MB-231; parameters: method as in PMID 29456804; conditions: cited from earlier work
[8] = system: MCF-7; parameters: method as in PMID 29456804; conditions: cited from earlier work

Compound	metabolite detected in Plasma [1]	metabolite detected in Tumor [2]	metabolite detected in Urine [3]	relative abundance among metabolites in feces [3]	relative abundance among metabolites in urine [3]	also measured
O=C(O)/C=C/c1cccc(S(=O)(=O)Nc2ccccc2)c1 [Belinostat acid, belinostat acid]	detected	found	detected	dominantly	dominant components	
NC(=O)/C=C/c1cccc(S(=O)(=O)Nc2ccccc2)c1 [Belinostat amide, belinostat amide]	detected	found	detected			
O=C(/C=C/c1cccc(S(=O)(=O)Nc2ccccc2)c1)NO [Belinostat, belinostat]	detected	found	detected	major metabolites	major components	effect on growth of MCF-7 tumor xenograft [4]: only inhibited tumor growth
O=C(/C=C/c1cccc(S(=O)(=O)Nc2ccccc2)c1)NOS(=O)(=O)O [Belinostat–sulfate]						sulfate conjugate found after incubation of ZL277 [5]: No peak
CONC(=O)/C=C/c1cccc(S(=O)(=O)Nc2ccccc2)c1 [Methylated belinostat, methylated belinostat]	detected	found	detected			
O=C(/C=C/c1cccc(S(=O)(=O)Nc2ccccc2)c1)NOCc1ccc(B(O)O)cc1 [ZL277-B(OH)2-452]				major metabolites	major components	relative abundance among drug-related forms in plasma ([1]; mice treated with ZL277): predominant form
O=C(/C=C/c1cccc(S(=O)(=O)Nc2ccccc2)c1)NOCc1ccc(OS(=O)(=O)O)cc1 [ZL277-OH-424-sufate]						sulfate conjugate found after incubation of ZL277 [5]: detected
O=C(/C=C/c1cccc(S(=O)(=O)Nc2ccccc2)c1)NOCc1ccc(O)cc1 [ZL277-OH-424]				major metabolites	major components	metabolite found after incubation of ZL277 with liver S9 fraction [6]: major oxidative metabolite
CC1(C)OB(c2ccc(CONC(=O)/C=C/c3cccc(S(=O)(=O)Nc4ccccc4)c3)cc2)OC1(C)C [ZL277]						bioavailability compared to belinostat ([1]; mice, 10 mg/kg IP): superior; metabolite found after incubation of ZL277 with liver S9 fraction [6]: not found; antiproliferative activity compared with belinostat [7]: slightly weaker; antiproliferative activity compared with belinostat [8]: slightly weaker; effect on growth of MCF-7 tumor xenograft [4]: caused tumor regression
